The results in this text go back to ChEMBL document CHEMBL5724914, “Linking interpersonal differences in gut microbiota composition and drug biotransformation activity” (2024).

For data set [1] the following is noted: human gut metagenome, 24 h, 2 µM.
The conditions of data set [2]: human gut metagenome, 24 h, 2 µM. This is another data set of the same source.
The conditions of data set [3]: human gut metagenome, 24 h, 2 µM. This is another data set of the same source.
Data set [4] in a line: The drug is tested on WLS-052 corresponding to human gut metagenome with ENA study accession number: PRJEB37062 and ENA sample accession number: ERS12561747 for biotransformation under anaerobic condition. The drug concentrations were measured over 9 timepoints collected between 0 and 24 hours of incubation by liquid-chromatography-coupled mass spectrometry (LC–MS). The following applies: 2 µM.

For data set [5] the following is noted: human gut metagenome, 24 h, 2 µM. The source holds these as a separate data set.
Data set [6] in a line: The drug is tested on Z-011 corresponding to mouse gut metagenome with ENA study accession number: PRJEB37062 and ENA sample accession number: ERS12561811 for biotransformation under anaerobic condition. The drug concentrations were measured over 9 timepoints collected between 0 and 24 hours of incubation by liquid-chromatography-coupled mass spectrometry (LC–MS). The following applies: 2 µM.

Data set [7] is described as follows: The drug is tested on Z-001 corresponding to mouse gut metagenome with ENA study accession number: PRJEB37062 and ENA sample accession number: ERS12561801 for biotransformation under anaerobic condition. The drug concentrations were measured over 9 timepoints collected between 0 and 24 hours of incubation by liquid-chromatography-coupled mass spectrometry (LC–MS). Conditions: 2 µM.

The conditions of data set [8]: human gut metagenome, 24 h, 2 µM. The source holds these as a separate data set.
The conditions of data set [9]: human gut metagenome, 24 h, 2 µM. This is another data set of the same source.
Data set [10] in a line: The drug is tested on WLS-010 corresponding to human gut metagenome with ENA study accession number: PRJEB37062 and ENA sample accession number: ERS12561743 for biotransformation under anaerobic condition. The drug concentrations were measured over 9 timepoints collected between 0 and 24 hours of incubation by liquid-chromatography-coupled mass spectrometry (LC–MS). The following applies: 2 µM.

The nature of data set [11]: The drug is tested on Z-012 corresponding to metagenome with ENA study accession number: PRJEB37062 and ENA sample accession number: ERS12561812 for biotransformation under anaerobic condition. The drug concentrations were measured over 9 timepoints collected between 0 and 24 hours of incubation by liquid-chromatography-coupled mass spectrometry (LC–MS). Conditions: 2 µM.

Data set [12] can be described thus: The drug is tested on Z-020 corresponding to rabbit gut metagenome with ENA study accession number: PRJEB37062 and ENA sample accession number: ERS12561819 for biotransformation under anaerobic condition. The drug concentrations were measured over 9 timepoints collected between 0 and 24 hours of incubation by liquid-chromatography-coupled mass spectrometry (LC–MS). Conditions: 2 µM.

Data set [13] in a line: The drug is tested on Z-029 corresponding to rat gut metagenome with ENA study accession number: PRJEB37062 and ENA sample accession number: ERS12561828 for biotransformation under anaerobic condition. The drug concentrations were measured over 9 timepoints collected between 0 and 24 hours of incubation by liquid-chromatography-coupled mass spectrometry (LC–MS). Conditions: 2 µM.

Data set [14] is described as follows: The drug is tested on WLS-220 corresponding to human gut metagenome with ENA study accession number: PRJEB37062 and ENA sample accession number: ERS12561769 for biotransformation under anaerobic condition. The drug concentrations were measured over 9 timepoints collected between 0 and 24 hours of incubation by liquid-chromatography-coupled mass spectrometry (LC–MS). Conditions: 2 µM.

Data set [15] is described as follows: The drug is tested on Z-028 corresponding to mouse gut metagenome with ENA study accession number: PRJEB37062 and ENA sample accession number: ERS12561827 for biotransformation under anaerobic condition. The drug concentrations were measured over 9 timepoints collected between 0 and 24 hours of incubation by liquid-chromatography-coupled mass spectrometry (LC–MS). Conditions: 2 µM.

Data set [16] in a line: The drug is tested on Z-024 corresponding to pig gut metagenome with ENA study accession number: PRJEB37062 and ENA sample accession number: ERS12561823 for biotransformation under anaerobic condition. The drug concentrations were measured over 9 timepoints collected between 0 and 24 hours of incubation by liquid-chromatography-coupled mass spectrometry (LC–MS). Conditions: 2 µM.

The nature of data set [17]: The drug is tested on WLS-069 corresponding to human gut metagenome with ENA study accession number: PRJEB37062 and ENA sample accession number: ERS12561748 for biotransformation under anaerobic condition. The drug concentrations were measured over 9 timepoints collected between 0 and 24 hours of incubation by liquid-chromatography-coupled mass spectrometry (LC–MS). Conditions: 2 µM.

For data set [18] the following is noted: human gut metagenome, 24 h, 2 µM. The source holds these as a separate data set.
A short description of data set [19]: The drug is tested on Z-018 corresponding to pig gut metagenome with ENA study accession number: PRJEB37062 and ENA sample accession number: ERS12561817 for biotransformation under anaerobic condition. The drug concentrations were measured over 9 timepoints collected between 0 and 24 hours of incubation by liquid-chromatography-coupled mass spectrometry (LC–MS). The following applies: 2 µM.

The nature of data set [20]: The drug is tested on WLS-082 corresponding to human gut metagenome with ENA study accession number: PRJEB37062 and ENA sample accession number: ERS12561751 for biotransformation under anaerobic condition. The drug concentrations were measured over 9 timepoints collected between 0 and 24 hours of incubation by liquid-chromatography-coupled mass spectrometry (LC–MS). Conditions: 2 µM.
Further: call rule not given here.

On to `CC(O)(CS(=O)(=O)c1ccc(F)cc1)C(=O)Nc1ccc(C#N)c(C(F)(F)F)c1` (centres undefined) [BICALUTAMIDE], for which the “Bacterial Biotransformation” value in data set [1], in data set [2], in data set [3], in [4], in data set [5] and in [6] was “Compound NOT metabolized” each time. In addition, the “Bacterial Biotransformation” value in data set [7], in data set [8], in data set [9], in data set [10], in data set [11] and in data set [12] was “Compound NOT metabolized” each time. For the same compound, the “Bacterial Biotransformation” value in data set [13], in data set [14], in data set [15], in [16], in data set [17] and in [18] was “Compound NOT metabolized” in each case. The “Bacterial Biotransformation” value in data set [19] is recorded as “Compound NOT metabolized”.
As for `O=C(NCc1ccccc1)OCCO` [BURAMATE], the “Bacterial Biotransformation” value in data set [1], in data set [2], in data set [3], in [4], in data set [5] and in data set [6] was “Compound NOT metabolized” in each case. Further, the “Bacterial Biotransformation” value in data set [7], in data set [8], in data set [9], in [10], in data set [11] and in data set [13] was “Compound NOT metabolized” throughout. The “Bacterial Biotransformation” value in data set [14], in [15], in data set [20], in [16], in data set [17] and in [18] was “Compound NOT metabolized” in each case. Besides, the “Bacterial Biotransformation” value in data set [19] is “Compound NOT metabolized”.
Consider `CCCCCCOC(=O)/N=C(/N)c1ccc(NCc2nc3cc(C(=O)N(CCC(=O)OCC)c4ccccn4)ccc3n2C)cc1.CS(=O)(=O)O` [DABIGATRAN ETEXILATE MESYLATE], for which the “Bacterial Biotransformation” value in [6], in data set [7], in data set [11], in data set [12], in data set [13] and in [15] was “Compound NOT metabolized” each time. Moreover, the “Bacterial Biotransformation” value in [16] and in data set [19] was “Compound NOT metabolized” throughout.
As to `c1ccc([C@H]2CN3CCSC3=N2)cc1` [LEVAMISOLE], the “Bacterial Biotransformation” value is “Compound metabolized” in data set [1]; “Compound metabolized” in data set [2]; “Compound metabolized” in data set [3]; “Compound NOT metabolized” in data set [4]; “Compound metabolized” in data set [5]; “Compound NOT metabolized” in data set [6]. The “Bacterial Biotransformation” value in data set [7] was “Compound NOT metabolized”; in data set [8] it was “Compound metabolized”; in data set [9], “Compound metabolized”; in data set [11], “Compound NOT metabolized”; in data set [12] it was “Compound NOT metabolized”; in [13] it was “Compound NOT metabolized”. Further, the “Bacterial Biotransformation” value in data set [14], in data set [15], in data set [17], in data set [18] and in data set [19] was “Compound metabolized” throughout.
With `C#C[C@]1(O)CC[C@H]2[C@@H]3CCC4=CC(=O)CC[C@@H]4[C@H]3CC[C@@]21CC` [LEVONORGESTREL], the “Bacterial Biotransformation” value in data set [1], in data set [2], in [3], in data set [4], in [5] and in data set [6] was “Compound metabolized” throughout. For the same compound, the “Bacterial Biotransformation” value in [7] is “Compound NOT metabolized”; in [8], “Compound metabolized”; in [9], “Compound metabolized”; in data set [12], “Compound metabolized”; in [13] it was “Compound NOT metabolized”; in [14], “Compound metabolized”. Also, the “Bacterial Biotransformation” value in data set [15], in [20], in data set [17], in data set [18] and in data set [19] was “Compound metabolized” throughout.
In the case of `COc1c(C)c2c(c(O)c1C/C=C(\C)CCC(=O)OCCN1CCOCC1)C(=O)OC2` [MYCOPHENOLATE MOFETIL], the “Bacterial Biotransformation” value in [1], in data set [2], in data set [3], in [4], in data set [5] and in [6] was “Compound metabolized” throughout. Further, the “Bacterial Biotransformation” value in data set [7], in [8], in [9], in [10], in data set [11] and in data set [13] was “Compound metabolized” in each case. In addition, the “Bacterial Biotransformation” value in data set [14], in [15], in [20], in data set [16], in [17] and in data set [18] was “Compound metabolized” throughout. In data set [19], the “Bacterial Biotransformation” value is given as “Compound metabolized”.
